Data published in patent US20140017701A1, “CHIMERIC PDK1 KINASES” (priority 2011, published 2014).
pIC50: −log10 of the molar value.

Columns and labels:
[1] = tested on: PDK1; assay: Protein kinase activity assay, PDK1; assay type: biochemical, human; details: for Effect on PDK1 activity: PDK1 wt / PDK1 50-359; for Activity (%) PDK1: Table I a, percentage of catalytic activity compared to DMSO, T308tide substrate, 50 μM stated for PS171
Procedure: For the expression and purification of protein kinases fused to GST, pEBG-2T derived plasmids were transfected into 8×14.5 cm dishes containing HEK293 cells using the PEI method ([…] and […]/14.5 cm dish). The cells were lysed after 48 h in a buffer containing 50 mM Tris-HCl pH 7.5, 1 mM EGTA, 1 mM EDTA, 1% (w/v) Triton X-100, 1 mM sodium orthovanadate, […], 5 mM sodium pyrophosphate, 0.27 M sucrose, 0.1% β-mercaptoethanol, and 1 tablet of protease inhibitor cocktail per 50 ml of buffer. Lysates were frozen in liquid nitrogen and kept at −80° C. until required. Purification involved incubation of the cleared lysate with glutathione sepharose, followed by 2 washes with 0.5 M NaCl in lysis buffer, 8 washes with a buffer containing 50 mM Tris-HCl, 0.1 mM EGTA and 0.1% β-mercaptoethanol (buffer A), and a last wash with buffer A supplemented with 0.26 M sucrose. Elution was performed with this last buffer containing 20 mM glutathione and the GST-fusion protein was cleared from resin by filtration through a “SigmaPrep” spin column (Sigma). GST-fusion proteins were aliquoted, snap frozen in liquid nitrogen and kept at −80° C. until use. Purity at this stage was above 85% as estimated by SDS-PAGE and staining with Coomassie Brilliant Blue R250. PRK2 was expressed from pEBG-2T-PRK2 (Balendran, A. et al. J Biol Chem 275, 20806-13. (2000)), SGK1 from pEBG-2T-SGK1-ΔN[Ser422Asp], PKBα from pEBG-2T-PKBα[Ser473Asp] (Biondi et al., D. R. Embo J 20, 4380-90. (2001)), PKCl from pEBG-2T-PKCl and PKCζ from pEBG-2T-PKCζ. PDK1 and S6K1 were expressed in Sf9 insect cells using a baculovirus expression system from pFastBac-PDK1 and pFastBac-56K1-T2[Thr412Glu].
The protein kinase activity assays were performed essentially as previously described (Engel, M. et al. Embo J 25, 5469-80 (2006)). The assays were done in a 96-well format and 4 μl aliquots spotted on P81 phospho-cellulose papers (Whatman) using epMotion 5070 (Eppendorf), washed in 0.01% phosphoric acid, dried, and then exposed and analyzed using PhosphoImager technology (FLA-9000 Starion, Fujifilm). Atypical PKC (aPKC) activity assays were performed in a total volume of 20 μl containing 50 mM Tris-HCl pH 7.5, 0.05 mg/ml BSA, 0.1% (v/v) 2-mercaptoethanol, 10 mM MgCl2, 100 μM [γ^32P]ATP (5-50 cpm/pmol), 0.003% Brij, 30-50 ng of aPKC, and MBP (10 μM) or PSRtide (100 μM) as the substrate. After 15 min pre-incubation, the kinase reaction was started by addition of 6 μl of an ATP-Mg mix. When required, lipid activator (LA) phosphatidylserine (100 ng) or PKC lipid activator mix (1×) was included in the pre-incubation. Low basal activity and consistent activation of 1-592 PKCζ and 498 PKCζ by LA was obtained when the pre-incubation time was started by addition of the whole mix on the enzyme.
The substrates were T308tide (200 μM) for PDK1, Kemptide (100 μM) for PKA, and Crosstide (100 μM) for SGK, PKB, S6K, and PRK2. The activity assays for PKCα, β, θ, and δ were performed in the presence of PKC lipid activator mix (1×) using 3 μM of histone H1 as substrate.
The activity assays were performed in duplicates or triplicates (in the case of the temperature stability assay) with less than 10% difference between the duplicate pairs. The activity assays shown were repeated at least twice with similar results. Moreover, most of the assays shown were repeated multiple times with enzymes from independent purifications with similar results. Representative experiments are shown. […]

[2] = biological target: T1, S6K1-T2-[Thr412Glu] (Homo sapiens, UniProt P23443, T412E); assay: Protein kinase activity assay, S6K1; assay type: biochemical; details: Table I a; percentage of catalytic activity compared to DMSO; Crosstide substrate
T1 construct: His; made in house; host or cells: Sf9 insect cells (baculovirus)
T1 sequence (P23443 1-421 T412E limits assumed): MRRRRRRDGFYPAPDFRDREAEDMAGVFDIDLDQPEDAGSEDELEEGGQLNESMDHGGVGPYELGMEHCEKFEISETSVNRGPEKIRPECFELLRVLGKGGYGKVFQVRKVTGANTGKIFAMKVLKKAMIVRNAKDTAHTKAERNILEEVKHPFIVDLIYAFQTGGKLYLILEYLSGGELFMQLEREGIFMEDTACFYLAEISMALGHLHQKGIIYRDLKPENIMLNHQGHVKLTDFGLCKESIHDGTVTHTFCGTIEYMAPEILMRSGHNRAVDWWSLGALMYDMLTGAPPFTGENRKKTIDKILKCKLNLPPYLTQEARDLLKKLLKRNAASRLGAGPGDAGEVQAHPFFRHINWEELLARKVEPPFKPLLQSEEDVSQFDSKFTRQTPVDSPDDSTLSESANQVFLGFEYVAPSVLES
Procedure: For the expression and purification of protein kinases fused to GST, pEBG-2T derived plasmids were transfected into 8×14.5 cm dishes containing HEK293 cells using the PEI method ([…] and […]/14.5 cm dish). The cells were lysed after 48 h in a buffer containing 50 mM Tris-HCl pH 7.5, 1 mM EGTA, 1 mM EDTA, 1% (w/v) Triton X-100, 1 mM sodium orthovanadate, […], 5 mM sodium pyrophosphate, 0.27 M sucrose, 0.1% β-mercaptoethanol, and 1 tablet of protease inhibitor cocktail per 50 ml of buffer. Lysates were frozen in liquid nitrogen and kept at −80° C. until required. Purification involved incubation of the cleared lysate with glutathione sepharose, followed by 2 washes with 0.5 M NaCl in lysis buffer, 8 washes with a buffer containing 50 mM Tris-HCl, 0.1 mM EGTA and 0.1% β-mercaptoethanol (buffer A), and a last wash with buffer A supplemented with 0.26 M sucrose. […]
The protein kinase activity assays were performed essentially as previously described (Engel, M. et al. Embo J 25, 5469-80 (2006)). The assays were done in a 96-well format and 4 μl aliquots spotted on P81 phospho-cellulose papers (Whatman) using epMotion 5070 (Eppendorf), washed in 0.01% phosphoric acid, dried, and then exposed and analyzed using PhosphoImager technology (FLA-9000 Starion, Fujifilm). […]

[3] = tested on: PKCζ-dependent NFκB activation in U937 cells; assay: PKCζ-dependent NFκB signaling in U937 cells (luciferase reporter, TNFα stimulation); assay type: cell-based; details: 3 h pre-incubation, TNFα 50 ng/ml 90 min, read-out: IC50, inhibition of PKCζ-dependent NFκB activation
Procedure: In U937 lymphoma cells, tumor necrosis factor alpha (TNFα) dependent activation of NFκB is dependent on PKCζ activity (Folgueira, L. et al. J Virol 70, 223-31 (1996); Muller, G. et al. Embo J 14, 1961-9 (1995)). U937cells were transiently transfected with a plasmid encoding for luciferase under the control of NFκB response elements (pGL4.32 [luc2P/NF-κB-RE/Hygro], Promega). After serum starvation overnight, the cells were incubated in 96-well plates with the compounds or DMSO (0.25%) for 3 h and stimulated with TNFα (50 ng/ml, PeproTech) for 90 min. Bright-Glo Luciferase Assay reagent (Promega) was added and the luciferase activity measured using the multilabel reader station EnVision (Perkin Elmer).
U937 lymphoma cells were transiently transfected with a plasmid coding for luciferase under the control of the NFκB promoter. Upon stimulation of the cells with TNFα, an increase in luciferase activity is detected. In U937 cells, the NFκB signaling pathway is dependent on PKCζ activity (Muller, G. et al. Embo J 14, 1961-9 (1995)).

Structure (SMILES) | Effect on PDK1 activity [1] | Activity (%) PDK1 [1] [%] | Activity (%) S6K1 [2] [%] | pIC50 [3]
Cl.O=C(O)CC(Cc1nc2cc(-c3ccccc3)ccc2[nH]1)c1ccc(Cl)cc1 (centres unmarked) [PS168] | activates | 294 | 41 | 4.30
Cl.O=C(O)CC(Cc1nc2c(Cl)cc(Cl)cc2[nH]1)c1ccc(Cl)cc1 (centres unmarked) [PS171] | allosteric activators | 246 | 47 | 4.30
